The source of these data is patent publication US9364523B2 (priority 2014, dated 2016).

Residues, ends and D or L forms follow the SMILES beside them. *: point of attachment. Cbz = O=C(OCc1ccccc1)*

For one test, the system named is transfected COS cells. Type of test: cell-based.
A further test deals with transfected HEK cells. In kind it is cell-based.

For the compound `CC(C)C[C@@H](C=O)NC(=O)[C@H](CC(C)C)NC(=O)[C@H](CC(C)C)NC(=O)OCc1ccccc1` [MG132] (Cbz-Leu-Leu-Leu-aldehyde), the “MTI-PAA expression in the presence of proteasome inhibitor” value with transfected COS cells was “enhanced”. In addition, the “MTI-PAA levels in the presence of proteasome inhibitor” value with transfected HEK cells is “increased levels of MTI-PAA”.
